Assay results reported in US11220661B2, “Compositions comprising taurate surfactants and methods of using the compositions” (Colgate-Palmolive Company, priority 2016, dated 2022).

What was measured:
[1] = system: proinflammatory cytokines IL-1a, IL-6, IL-8, TNF-a in 3D EpiDerm skin models; assay: Multiple inflammation biomarker assay on SDS-irritated 3D EpiDerm skin models; conditions: for cytokine levels (IL-1a, IL-6, IL-8, TNF-a; FIGS. 2A-2D, % control): 0.02 wt. % SDS-irritated skin samples, 30 ul of 1% test solution in PBS topically for 1 hour, then 24 hours incubation, Milliplex assay
Experimental: To document the effect on skin inflammation, in vitro experiments using 3D EpiDerm skin models (SIT 200 skin irritation model, MatTek Corporation, Ashland, Mass.) were conducted. An irritant chemical, sodium dodecyl sulfate (0.02 wt. % SDS), was used to induce skin irritation in in vitro skin samples. After the inducement of skin irritation, the in vitro skin samples were each treated topically with one of two 30 ul test solutions (either a 1% Taurine in PBS solution or a 1% Sodium methyl oleoyl taurate in PBS solution) for 1 hour in a tissue culture incubator (37 degree C., 5% CO2). Following the incubation, the skin samples were washed with PBS and placed in a culture medium and further incubated for 24 hours. Tissue was harvested and homogenized for a multiple inflammation biomarker assay, testing levels of IL-1, IL-6, IL-8 and TNF-a. Biomarkers were analyzed by a Milliplex assay kit. (Millipore, Billerica, Mass.).
The irritant chemical, sodium dodecyl sulfate (SDS), that was used is commonly used as a […] control in irritation/inflammation assays on MatTek tissue. The multiple biomarker assay of Example 2 measured the levels of proinflammatory cytokines, including IL-1a, IL-6, IL-8, TNF-a, in one assay to evaluate the level of skin irritation/inflammation. The more cytokines released, the greater the irritation and/or inflammation potential.

[2] = system: HaCaT cells; assay: Cell migration assay (scratch gap closure); assay type: cell-based, human; conditions: 0.01% by weight in DMEM culture medium, 24 hours, vs control medium
Experimental: Three different culture medium samples were prepared. A control medium that included a Dulbecco's modified Eagle's medium (DMEM) comprising actives of 10% Fetal Bovine Serum and 1% Penicillin Streptomycin; a taurine medium that was the same as the control medium but included 0.01% by weight Taurine; and a taurate medium that was the same as the control medium but included 0.01% by weight Sodium Methyl Oleoyl Taurate. To determine the effect of both Taurine (0.01%) and Sodium Methyl Oleoyl Taurate (0.01%) on the cellular repair function, in vitro experiments were conducted using HaCaT cells. HaCaT cells are a spontaneously transformed aneuploid immortal keratinocyte cell line from adult human skin. Three sample wells of the HaCaT cells were each grown until 100% confluent. After that, each well was scratched with a 1000 microliter (ul) tip (to create the gap) and washed twice with 1 milliliter (ml) of phosphate buffered saline (“PBS”) to eliminate dead floating cells. Following that, each one of the three sample wells were treated with 1 ml of one of the three culture medium samples: one with the control medium, one with the taurine (0.01%) medium, and one with the sodium methyl oleoyl taurate (0.01%) medium. Then, initial measurements of gap distance were taken using a microscope (OLYMPUS IX71). […]

[3] = system: IL-1a in 3D EpiDerm skin models; assay: Irritation biomarker (IL-1a) assay on 3D EpiDerm skin models; assay type: cell-based, human; conditions: 6.8% in combar base, p-value of 0.03 vs combar base
Source text: Two separate combar samples were formulated, one with taurine and one with sodium methyl oleoyl taurate. Both the taurine and sodium methyl oleoyl taurate were formulated at the same molar concentration in the combar samples. The weight concentrations of taurine and methyl oleoyl taurate in their respective combar bases was as follows:
Taurine combar sample—2% Taurine (obtained from Qianjiang Yongan Pharmaceutical, Wuhan, China), 98% Combar;
Taurate combar sample—6.8% Sodium Methyl Oleoyl Taurate (obtained from Rhodia Solvay Group), 93.2% Combar.
Samples for testing were made by mixing the taurine combar and taurate combar in PBS (1% weight by volume combar base of each of the taurine combar and sodium methyl oleoyl taurate combar in PBS).
Separate In vitro skin samples were treated topically with 30 ul each of the taurine combar and taurate combar test samples for 1 hour in a tissue culture incubator. […] Tissue was harvested and homogenized for a IL-1a assay. IL-1a levels were analyzed using a Human IL-1 alpha/IL-1F1 Quantikine ELISA kit available from R&D Systems, Minneapolis, Minn. Among cytokines released along the inflammation pathway, IL-1a is recognized as a prominent irritation biomarker. The more IL-1a that is released, the greater is the irritation potential.
Thus, the combar base was used as a negative control on the MatTek tissue.

| Compound | expression of cytokines IL-1a, IL-6, IL-8 and TNF-a by the irritant ([1]; 0.02 wt. % SDS on 3D EpiDerm) | cell migration rate (% reduction in gap distance, FIG. 1) [2] | cytokine levels (IL-1a, IL-6, IL-8, TNF-a; FIGS. 2A-2D, % control) [1] | irritation potential of the combar base [3] |
| --- | --- | --- | --- | --- |
| CCCCCCCCCCCCOS(=O)(=O)[O-].[Na+] [SDS, Sodium Dodecyl Sulfate] | induced | – | – | – |
| CCCCCCCC/C=C\CCCCCCCC(=O)N(C)CCS(=O)(=O)[O-].[Na+] [sodium methyl oleoyl taurate] | – | comparable enhancement in cell migration rate | suppressed | significantly reduced |
| NCCS(=O)(=O)O [taurine, 2-aminoethylsulphonic acid] | – | comparable enhancement in cell migration rate | suppressed | – |
